In patent US6528521B2, “Treatment of anti-depression drug-induced sexual dysfunction with apomorphine” (Tap Pharmaceutical Products, Inc., priority 2000, dated 2003):

Tested on: male patients taking selective serotonin reuptake inhibitors
Assay: Crossover home-use trial of sublingual apomorphine in male patients taking SSRIs
Type: in vivo, human
Conditions: apomorphine versus placebo
Protocol: A crossover study of 1500 patients in a home-use trial of apomorphine on male patients was performed.
In the crossover study, a 2-4 week baseline period was used to evaluate subjects. After this time, during an initial four week treatment period, subjects received either a placebo or apomorphine, without knowing whether or not they had received the active medication. The dosage was either 2, 4, 5 or 6 mg. This initial treatment period was followed by a 24-96 hour washout period, in which no medication was taken. Subsequently, a second four week treatment period, subjects who previously had received apomorphine, were given a placebo, and subjects who previously had received the placebo were given apomorphine. Subject were to attempt coitus once each week after taking a single tablet of apomorphine sublingually. After each attempt, the subject and their partner completed a sexual function questionnaire which was later evaluated and used for final statistical analysis. In the analysis, the data for patients receiving 2, 4, 5 or 6 mg dosages was pooled.

## CN1CCc2cccc3c2[C@H]1Cc1ccc(O)c(O)c1-3 [apomorphine, (R)-5,6,6a,7-tetrahydro-6-methyl-4H-dibenzo-[de,g]quinoline-10,11-diol]
  patients on SSRI drugs able to have intercourse after taking apomorphine, relative to placebo: twice as many
